Values quoted from earlier work in patent publication US20020002154A1, “METHOD AND COMPOSITION FOR TREATMENT OF INFLAMMATORY CONDITIONS” (priority 1998, published 2002).

System: acute phase of Crohn's Disease (CD)

In the case of `CCCC1O[C@@H]2C[C@H]3[C@@H]4CCC5=CC(=O)C=C[C@]5(C)[C@H]4[C@@H](O)C[C@]3(C)[C@]2(C(=O)CO)O1` (stereo partly shown) [budesonide], the “side-effects compared to prednisone” value is listed as “fewer side-effects”.
